Assay results: patent US20230331679A1, “NAPHTHALENE MONOIMIDE COMPOUNDS AND METHODS THEREOF” (JAWAHARLAL NEHRU CENTRE FOR ADVANCED SCIENTIFIC RESEARCH, priority 2020, published 2023)

How the values were obtained:
[1] = molecular target: T1, Aβ42 fibrillar aggregates (Homo sapiens, UniProt P05067); assay: ThT binding assay, dissolution of preformed Aβ42 fibrils; format: biochemical; settings: after sixth day of incubation
T1 construct: commercially available β-amyloid peptide (1-42), human; purchased marck (so in the source) PP69-.025 mg
Procedure: Monomeric form of Aβ42 peptide was prepared by dissolving 0.25 mg of commercially available β-amyloid peptide (1-42), human (cat: PP69-.025 mg), marck peptide in 250 µL of hexafluoro-2-propanol (HFIP) solvent to obtain a Aβ42 solution. This solution was incubated at room temperature for 1 hour, further to which the HFIP solvent was removed by nitrogen gas flow to obtain the monomeric Aβ42 peptide. To prepare a fibrillar sample of Aβ42 peptide, 0.025 mg of Aβ42 peptide was dissolved in […] of PBS buffer (pH = 7.4; contains 2% of DMSO or 100 mM NaOH) to obtain a monomeric Aβ42 solution and the peptide concentration in this solution was calculated through UV-Visible absorbance studies (ε = 1450 cm^-1 M^-1). The Aβ42 monomeric solution was incubated for 5 days in PBS buffer (pH = 7.4) to allow for the full phase formation of Aβ42 fibrils. The presence of Aβ42 fibrils was further confirmed by ThT assay.
The ability of NMI compounds (TGR63, TGR64 and TGR65) to prevent Aβ42 fibrillar assembly (inhibition) and to break down the preformed fibrils (dissolution) was evaluated using thioflavin (ThT) binding assay. Aβ42 fibrils at a concentration of 10 µM and its aggregates, were used to study the effect of NMI compounds (TGR63, TGR64 and TGR65) at varying concentrations on both inhibition and dissolution assays. For the inhibition assay, all the NMI compounds (TGR63, TGR64 and TGR65) were added independently to Aβ peptide (10 µM) at 0 h of the experiment, whereas for the aggregates dissolution assay they were added to Aβ42 fibrillar aggregates grown for 2 days. Upon incubating for a predetermined period, Aβ42 inhibitor samples were analyzed using ThT by measuring the fluorescence change at 485 nm as presented in FIG. 1(b) and FIG. 1(c), wherein the error bars represent the standard deviation (SD) of the fluorescence measurement. Fluorescence values were normalized to maximal fluorescence intensity at 485 nm compared to that of the control (Aβ42 with no inhibitor). Experiments were performed at various stoichiometric ratios (Aβ42/inhibitor) of 1:1, 1:2, and 1:5 with a fixed concentration of Aβ42 at 10 µM. Each experiment was repeated three times (n = 3). […] TGR 63 recorded 80% dissolution efficiency while TGR 64 and TGR 65 recorded 75% and 78% dissolution efficiency respectively, for the stoichiometric ratio of 1:5.

[2] = tested on: WT mice; assay: LD50 by intraperitoneal injection (OECD guidelines); format: in vivo; settings: IP injection, survival monitored 14 days
Procedure: Pharmacokinetics of TGR63 in wild-type (WT) mice was performed to assess its in vivo efficacy. The lethal dose 50 (LD50) of TGR63 was determined in WT mice through intraperitoneal (IP) injection following the Organisation for Economic Cooperation and Development (OECD) guidelines. […] FIG. 7A illustrates the calculation of lethal dose 50% (LD50) of TGR63 through intraperitoneal administration and is represented as table of experimental details and the final observation was done on 14th day. FIG. 7B illustrates the mortality (%) plotted against TGR63 concentration and calculation of LD50. Twenty-five WT mice were segregated in five different groups (G1-5, N= 5 per group) and administered with varying doses of TGR63 (1.7, 5.5, 17.5 56.0 and 179.0 mg/kg body weight, respectively) through IP injection and their survival was monitored for 14 days. The serum stability and blood-brain barrier (BBB) crossing ability of TGR63 were assessed through matrix-assisted laser desorption ionization (MALDI) mass spectrometry analysis of blood and brain samples of vehicle and TGR63 treated mice. […] The partition coefficient (P), a valuable physical property was calculated to predict the BBB permeability. […] The calculated positive logP value predicts the possible BBB crossing ability for TGR63. […]

[3] = tested on: APP/PS1 mice; assay: Open field (OF) test; format: in vivo; settings: AD TGR63 cohort
Procedure: In OF test, all the experimental mice were individually allowed to explore a novel platform (45 X 45 cm) and their locomotion activity was monitored for 5 min (Sony HDRCX405 camera) and analyzed using the smart 3 software (Panlab; FIG. 16A). […] The anxiety behaviors of TGR63 treated mice were assessed by the time spent and the entries in the center zone (20 X 20 cm) of OF arena. […] Next, the effect of TGR63 on memory processing, viz., acquisition, consolidation and retrieval were evaluated through NOI test, which has been widely used as a tool to study the neurobiology of memory using the natural tendency of rodents to explore novel objects more than the familiar objects. All the experimental mice were familiarized with two identical objects (familiar objects) in a known habituated arena and allowed to explore a novel and familiar object after 24 and 48 h of familiarization (FIG. 16E). The exploration time with each object was measured using a stopwatch, and the discrimination index (DI) was determined using the formula, (time exploring the novel object - time exploring the familiar) / (time exploring novel + familiar) * 100. […] Similarly, the calculated DI after 48 h was lowest (-7) for AD vehicle cohort compared to both vehicle and TGR63 treated WT cohorts (+43 and +45, respectively) (FIG. 16G). […] The blocking of essential synaptic receptors (NMDA and AMPA) by Aβ aggregation species leading to synaptic dysfunction followed by impairment in hippocampal LTP formation. […] TGR63 treatment ameliorates the memory impairment in APP/PS 1 mice by reducing the toxic amyloid burden from the brain under progressive AD conditions.

T1 sequence (P05067 672-713 limits assumed): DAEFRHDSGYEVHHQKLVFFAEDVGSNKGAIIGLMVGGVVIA

Question: How did the dissolution efficiency ([1]; Aβ42/inhibitor 1:1, Aβ42 10 µM) turn out when `CN(C)c1ccc(C#Cc2ccc3c4c(cccc24)C(=O)N(CC[N+](C)(C)C)C3=O)cc1` [TGR63, 2-(6-((4-(dimethylamino)phenyl)ethynyl)-1,3-dioxo-1H-benzo[de]isoquinolin-2(3H)-yl)-N,N,N-trimethylethan-1-aminium] was run?
Answer: ~ 35%

Question: What about the dissolution efficiency ([1]; Aβ42/inhibitor 1:2, Aβ42 10 µM) of the same molecule?
Answer: ~ 50%

Question: And the dissolution efficiency ([1]; Aβ42/inhibitor 1:5, Aβ42 10 µM)?
Answer: 80%

Question: What about the LD50 [2] of the same molecule?
Answer: ~ 157.9 mg/kg body weight

Question: What about the “total distance traveled (average)” value ([3]; 5 min, AD vehicle 2698.25 cm, WT vehicle 1533.88 cm) of the same molecule?
Answer: 1515.33 cm

Question: And the “distance traveled in the center zone (average)” value ([3]; AD vehicle 243.0 cm)?
Answer: 98.14 cm

Question: What about the “number of entries into the center zone” value ([3]; AD vehicle ~20) of the same molecule?
Answer: ~ 9 entries
